These results are taken from US12018011B2, “Macrocyclic compounds and compositions, and methods of preparing and using the same” (Kura Oncology, Inc., priority 2021, dated 2024).

This experiment addresses T1, Recombinant human farnesyl transferase (FTase) (Homo sapiens, UniProt P49356).
T1 construct: purchased Crelux (Martinsried, Germany)
The experiment in a line: FTase fluorescence assay (farnesylation of dansyl-GCVLS peptide). The format is biochemical. Conditions: recombinant human FTase 2.5 nM, Dansyl-GCVLS 85 nM, FPP 30 nM, 30° C., 50 minutes. The source says: T24/83 cell line was purchased from the European Collection of Authenticated Cell Cultures (Salisbury, UK). Recombinant human farnesyl transferase (FTase) and geranylgeranyl transferase type-1 (GGTase) were obtained from Crelux (Martinsried, Germany). Dansyl labelled GCVLS peptide was purchased from Bachem (Torrance, CA), and Dansyl labelled GCVLL peptide was purchased from Bio Synthesis (Lewisville, TX). Farnesyl Pyrophosphate (FPP) and Geranylgeranyl pyrophosphate (GGPP) were purchased from Cayman (Ann Arbor, MI).
Specific biochemical activity of the compounds disclosed herein as FTase inhibitors was determined by measuring the ability of the compounds to block the farnesylation by recombinant FTase of fluorescent (i.e., dansyl-labeled) test substrates derived from the CAAX box of farnesylated proteins, such as the peptide GCVLS.
The IC50 value of the compounds disclosed herein as inhibitors of Ftase and/or GGTase, was determined by measuring the concentration (provided in nM) necessary to achieve inhibition of enzyme activity by 50% (IC50). […] Compounds having a low IC50 value against FTase, for example an IC50 (FTase)<100 nM, such as an IC50 (FTase)<10 nM, are preferred. Compounds having a low IC50 value against FTase and a high IC50 value against GGTase, for example an IC50 (FTase)<100 nM, such as an IC50 (FTase)<10 nM, and an IC50 (GGTase)>100 nM, are potent and selective inhibitors of FTase, and are particularly preferred.
The inhibition activities of the compounds disclosed herein against Ftase and GGTase were measured in the respective fluorescence assays as follows:
For the FTase assay, recombinant human FTase (2.5 nM), Dansyl labelled GCVLS peptide (85 nM), FPP (30 nM) and inhibitor were mixed in assay buffer (50 mM Tris, pH 7.5, 10 mM magnesium chloride, 10 μM zinc chloride, 0.08% CHAPS, 5 mM dithiothreitol) and incubated in a total volume of 20 μL at 30° C. for 50 minutes.
For both the FTase assay and GGTase assay, fluorescence intensity was detected (excitation at 340 nm and emission at 486 nm) using EnVision (PerkinElmer; Waltham, MA), IC50 determinations were performed using a sigmoidal dose-response model with Xlfit software (IDBS, Inc.; Boston, MA), and tipifarnib was used as a positive control. All the assay plates for each assay passed the QC criteria (S/B, Z factor).

For the compound `[2H]C([2H])([2H])n1c(=O)cc2c3cc(ccc31)[C@@H](n1cncc1C)c1ccc(Cl)c(c1)COc1cccc-2c1` [(R)-76, (R)-4^4-chloro-2^1-(methyl-d3)-3-(5-methyl-1H-imidazol-1-yl)-2^1,2^2-dihydro-6-oxa-2(4,6)-quinolina-1,4(1,3)-dibenzenacyclohexaphan-2^2-one], the IC50 is 0.01 to 0.1 µM. For the compound `[2H]C([2H])([2H])n1c(=O)cc2c3cc(ccc31)[C@@H](n1cnc(C)c1)c1ccc(Cl)c(c1)COc1cccc-2c1` [(R)-77, (R)-4^4-chloro-2^1-(methyl-d3)-3-(4-methyl-1H-imidazol-1-yl)-2^1,2^2-dihydro-6-oxa-2(4,6)-quinolina-1,4(1,3)-dibenzenacyclohexaphan-2^2-one], the half-maximal inhibitory concentration (IC50) lay in the range of 0.01 to 0.1 µM.

As to `[2H]C([2H])([2H])n1cncc1[C@]1(O)c2ccc(C#N)c(c2)COc2cccc(c2)-c2cc(C#N)nc3ccc1cc23` [(R)-078, (R)-3-hydroxy-3-(1-(methyl-d3)-1H-imidazol-5-yl)-6-oxa-2(4,6)-quinolina-1,4(1,3)-dibenzenacyclohexaphane-2^2 4^4-dicarbonitrile], the half-inhibitory concentration (IC50) fell in the range of 0.01 to 0.1 µM.

As for `[2H]C([2H])([2H])n1c(=O)cc2c3cc(ccc31)[C@@H](n1ncnc1C)c1ccc(Cl)c(c1)COc1cccc-2c1` [(R)-079, (R)-4^4-chloro-2^1-(methyl-d3)-3-(5-methyl-1H-1,2,4-triazol-1-yl)-2^1,2^2-dihydro-6-oxa-2(4,6)-quinolina-1,4(1,3)-dibenzenacyclohexaphan-2^2-one], the half-inhibitory concentration (IC50) lay within 0.01 to 0.1 µM. With `[2H]C([2H])([2H])n1c(=O)cc2c3cc(ccc31)[C@@H](n1cnc(C)n1)c1ccc(Cl)c(c1)COc1cccc-2c1` [(R)-080, (R)-4^4-chloro-2^1-(methyl-d3)-3-(3-methyl-1H-1,2,4-triazol-1-yl)-2^1,2^2-dihydro-6-oxa-2(4,6)-quinolina-1,4(1,3)-dibenzenacyclohexaphan-2^2-one], the IC50 lay in the range of 0.01 to 0.1 µM.

Take `Cn1cncc1[C@]1(N)c2ccc(C#N)c(c2)COc2cccc(c2)-c2nccc3ccc1cc23` [(R)-86, (R)-3-amino-3-(1-methyl-1H-imidazol-5-yl)-6-oxa-2(1,7)-isoquinolina-1,4(1,3)-dibenzenacyclohexaphane-4^4-carbonitrile]: the IC50 is over 0.1 µM.

On to `Cn1cncc1[C@]1(N)c2ccc(C#N)c(c2)COc2cccc(c2)-c2cc(OC3COC3)nc3ccc1cc23` [(R)-89, (R)-3-amino-3-(1-methyl-1H-imidazol-5-yl)-2^2-(oxetan-3-yloxy)-6-oxa-2(4,6)-quinolina-1,4(1,3)-dibenzenacyclohexaphane-4^4-carbonitrile], for which the IC50 is 0.01 to 0.1 µM. On to `Cc1cn([C@H]2c3ccc(C#N)c(c3)COc3cccc(c3)-c3cc(C#N)nc4ccc2cc34)cn1` [(R)-90, (R)-3-(4-methyl-1H-imidazol-1-yl)-6-oxa-2(4,6)-quinolina-1,4(1,3)-dibenzenacyclohexaphane-2^2,4^4-dicarbonitrile], for which the IC50 was in the range of 0.01 to 0.1 µM. `Cn1cncc1[C@@]1(N)c2ccc(C#N)c(c2)COc2cccc(c2)-c2cc(N3CCOCC3)nc3ccc1cc23` [(S)-66, (S)-3-amino-3-(1-methyl-1H-imidazol-5-yl)-2^2-morpholino-6-oxa-2(4,6)-quinolina-1,4(1,3)-dibenzenacyclohexaphane-4^4-carbonitrile]: the IC50 was at most 0.01 µM. In the case of `[2H]C([2H])([2H])n1cncc1[C@@]1(N)c2ccc(C#N)c(c2)COc2cccc(c2)-c2cc(C#N)nc3ccc1cc23` [(S)-70, (S)-3-amino-3-(1-(methyl-d3)-1H-imidazol-5-yl)-6-oxa-2(4,6)-quinolina-1,4(1,3)-dibenzenacyclohexaphane-2^2 4^4-dicarbonitrile], the 50% inhibitory concentration (IC50) was at most 0.01 µM.

Consider `[2H]C([2H])([2H])n1c(=O)cc2c3cc(ccc31)[C@H](n1cncc1C)c1ccc(Cl)c(c1)COc1cccc-2c1` [(S)-76, (S)-4^4-chloro-2^1-(methyl-d3)-3-(5-methyl-1H-imidazol-1-yl)-2^1,2^2-dihydro-6-oxa-2(4,6)-quinolina-1,4(1,3)-dibenzenacyclohexaphan-2^2-one], for which the IC50 lay within 0.01 to 0.1 µM. With `[2H]C([2H])([2H])n1c(=O)cc2c3cc(ccc31)[C@H](n1cnc(C)c1)c1ccc(Cl)c(c1)COc1cccc-2c1` [(S)-77, (S)-4^4-chloro-2^1-(methyl-d3)-3-(4-methyl-1H-imidazol-1-yl)-2^1,2^2-dihydro-6-oxa-2(4,6)-quinolina-1,4(1,3)-dibenzenacyclohexaphan-2^2-one], the IC50 fell in the range of 0.01 to 0.1 µM. To `[2H]C([2H])([2H])n1cncc1[C@@]1(O)c2ccc(C#N)c(c2)COc2cccc(c2)-c2cc(C#N)nc3ccc1cc23` [(S)-078, (S)-3-hydroxy-3-(1-(methyl-d3)-1H-imidazol-5-yl)-6-oxa-2(4,6)-quinolina-1,4(1,3)-dibenzenacyclohexaphane-2^2 4^4-dicarbonitrile] belongs at most 0.01 µM; to `[2H]C([2H])([2H])n1c(=O)cc2c3cc(ccc31)[C@H](n1ncnc1C)c1ccc(Cl)c(c1)COc1cccc-2c1` [(S)-079, (S)-4^4-chloro-2^1-(methyl-d3)-3-(5-methyl-1H-1,2,4-triazol-1-yl)-2^1,2^2-dihydro-6-oxa-2(4,6)-quinolina-1,4(1,3)-dibenzenacyclohexaphan-2^2-one], over 0.1 µM; to `[2H]C([2H])([2H])n1c(=O)cc2c3cc(ccc31)[C@H](n1cnc(C)n1)c1ccc(Cl)c(c1)COc1cccc-2c1` [(S)-080, (S)-4^4-chloro-2^1-(methyl-d3)-3-(3-methyl-1H-1,2,4-triazol-1-yl)-2^1,2^2-dihydro-6-oxa-2(4,6)-quinolina-1,4(1,3)-dibenzenacyclohexaphan-2^2-one], 0.01 to 0.1 µM. As for `Cn1cncc1[C@@]1(N)c2ccc(C#N)c(c2)COc2cccc(c2)-c2nccc3ccc1cc23` [(S)-86, (S)-3-amino-3-(1-methyl-1H-imidazol-5-yl)-6-oxa-2(1,7)-isoquinolina-1,4(1,3)-dibenzenacyclohexaphane-4^4-carbonitrile], the figure is at most 0.01 µM; as for `Cn1cncc1[C@@]1(N)c2ccc(C#N)c(c2)COc2cccc(c2)-c2cc(OC3COC3)nc3ccc1cc23` [(S)-89, (S)-3-amino-3-(1-methyl-1H-imidazol-5-yl)-2^2-(oxetan-3-yloxy)-6-oxa-2(4,6)-quinolina-1,4(1,3)-dibenzenacyclohexaphane-4^4-carbonitrile], at most 0.01 µM. As for `Cc1cn([C@@H]2c3ccc(C#N)c(c3)COc3cccc(c3)-c3cc(C#N)nc4ccc2cc34)cn1` [(S)-90, (S)-3-(4-methyl-1H-imidazol-1-yl)-6-oxa-2(4,6)-quinolina-1,4(1,3)-dibenzenacyclohexaphane-2^2,4^4-dicarbonitrile], the half-inhibitory concentration (IC50) was in the range of 0.01 to 0.1 µM.

With `Cc1cncn1[C@@H]1c2ccc(C#N)c(c2)COc2cccc(c2)-c2cc(C#N)nc3ccc1cc23` [(S)-91, (S)-3-(5-methyl-1H-imidazol-1-yl)-6-oxa-2(4,6)-quinolina-1,4(1,3)-dibenzenacyclohexaphane-2^2,4^4-dicarbonitrile], the 50% inhibitory concentration (IC50) was over 0.1 µM. As for `Cn1cncc1C1(O)c2cccc(c2)CCc2cccc(c2)-c2cc(=O)[nH]c3ccc1cc23` (stereo not drawn) [Compound 1, 3-hydroxy-3-(1-methyl-1H-imidazol-5-yl)-2^1,2^2-dihydro-2(4,6)-quinolina-1,4(1,3)-dibenzenacyclohexaphan-2^2-one], the IC50 lay within 0.01 to 0.1 µM.

With `COc1cc2c3cc(ccc3n1)C(O)(c1cncn1C)c1ccc(C#N)c(c1)CCc1cccc-2c1` (stereo not drawn) [Compound 5, 3-hydroxy-2^2-methoxy-3-(1-methyl-1H-imidazol-5-yl)-2(4,6)-quinolina-1,4(1,3)-dibenzenacyclohexaphane-4^4-carbonitrile], the IC50 was at most 0.01 µM. To `COc1cc2c3cc(ccc3n1)C(O)(c1cncn1C)c1cccc(c1)OCc1cccc-2c1` (stereo not drawn) [Compound 10, 2^2-methoxy-3-(1-methyl-1H-imidazol-5-yl)-5-oxa-2(4,6)-quinolina-1,4(1,3)-dibenzenacyclohexaphan-3-ol] belongs over 0.1 µM. Regarding `COc1cc2c3cc(ccc3n1)C(O)(c1cncn1C)c1ccc(Cl)c(c1)OCc1cccc-2c1` (stereo not drawn) [Compound 12, 4^4-chloro-2^2-methoxy-3-(1-methyl-1H-imidazol-5-yl)-5-oxa-2(4,6)-quinolina-1,4(1,3)-dibenzenacyclohexaphan-3-ol], the IC50 is over 0.1 µM.

Take `COc1cc2c3cc(ccc3n1)C(O)(c1cncn1C)c1ccc(C#N)c(c1)OCc1cccc-2c1` (stereo not drawn) [Compound 16, 3-hydroxy-2^2-methoxy-3-(1-methyl-1H-imidazol-5-yl)-5-oxa-2(4,6)-quinolina-1,4(1,3)-dibenzenacyclohexaphane-4^4-carbonitrile]: the half-inhibitory concentration (IC50) was 0.01 to 0.1 µM.
